Experiments:
Assay in all cases: Caliper, Mobility shift assay off-chip
AURKB (human) = AURKB (human) (UniProt Q96GD4)
INSR (human) = INSR (human) (UniProt P06213)
CHEK1 (human) = CHEK1 (human) (UniProt O14757)
TSSK2 (human) = TSSK2 (human) (UniProt Q96PF2)
DYRK1A (human) = DYRK1A (human) (UniProt Q13627)
CSNK1D (human) = CSNK1D (human) (UniProt P48730)
PIM2 (human) = PIM2 (human) (UniProt Q9P1W9)
GSK3B (human) = GSK3B (human) (UniProt P49841)
PRKCE (human) = PRKCE (human) (UniProt Q02156)
CAMK2B (human) = CAMK2B (human) (UniProt Q13554)
PIM1 (human) = PIM1 (human) (UniProt P11309)
PRKCH (human) = PRKCH (human) (UniProt P24723)
ABL2 (human) = ABL2 (human) (UniProt P42684)
IRAK4 (human) = IRAK4 (human) (UniProt Q9NWZ3)
PRKCB1 (human) = PRKCB1 (human) (UniProt P05771)
MARK3 (human) = MARK3 (human) (UniProt P27448)
[1] = test system: ABL1 (human), P00519 [Q252H]
ROCK2 (human) = ROCK2 (human) (UniProt O75116)
RAF1 (human) = RAF1 (human) (UniProt P04049)
LCK (human) = LCK (human) (UniProt P06239)
PRKD1 (human) = PRKD1 (human) (UniProt Q15139)
MAPK13 (human) = MAPK13 (human) (UniProt O15264)
CHEK2 (human) = CHEK2 (human) (UniProt O96017)
FGFR4 (human) = FGFR4 (human) (UniProt P22455)
MAPK11 (human) = MAPK11 (human) (UniProt Q15759)
IGF1R (human) = IGF1R (human) (UniProt P08069)
FLT3 (human) = FLT3 (human) (UniProt P36888)
PRKD3 (human) = PRKD3 (human) (UniProt O94806)
[2] = test system: FGFR2 (human), P21802 [N549H]
HCK (human) = HCK (human) (UniProt P08631)
KDR (human) = KDR (human) (UniProt P35968)
TSSK1B (human) = TSSK1B (human) (UniProt Q9BXA7)
MAPK14 (human) = MAPK14 (human) (UniProt Q16539)
AURKC (human) = AURKC (human) (UniProt Q9UQB9)

Chain of LCK (human) (P06239 whole entry, looked up): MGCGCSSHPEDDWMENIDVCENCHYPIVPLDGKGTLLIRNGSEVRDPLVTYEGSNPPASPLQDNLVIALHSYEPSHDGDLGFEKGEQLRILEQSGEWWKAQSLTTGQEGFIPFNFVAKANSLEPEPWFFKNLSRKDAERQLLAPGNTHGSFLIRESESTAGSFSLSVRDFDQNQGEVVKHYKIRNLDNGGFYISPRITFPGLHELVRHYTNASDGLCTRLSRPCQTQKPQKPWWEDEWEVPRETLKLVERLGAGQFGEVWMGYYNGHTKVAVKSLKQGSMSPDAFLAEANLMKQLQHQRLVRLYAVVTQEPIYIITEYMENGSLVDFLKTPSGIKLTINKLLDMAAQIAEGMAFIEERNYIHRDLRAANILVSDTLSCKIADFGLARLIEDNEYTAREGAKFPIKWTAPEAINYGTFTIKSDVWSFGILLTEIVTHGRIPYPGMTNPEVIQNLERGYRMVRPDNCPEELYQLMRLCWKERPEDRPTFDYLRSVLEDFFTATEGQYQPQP
Chain of MAPK14 (human) (Q16539 whole entry, looked up): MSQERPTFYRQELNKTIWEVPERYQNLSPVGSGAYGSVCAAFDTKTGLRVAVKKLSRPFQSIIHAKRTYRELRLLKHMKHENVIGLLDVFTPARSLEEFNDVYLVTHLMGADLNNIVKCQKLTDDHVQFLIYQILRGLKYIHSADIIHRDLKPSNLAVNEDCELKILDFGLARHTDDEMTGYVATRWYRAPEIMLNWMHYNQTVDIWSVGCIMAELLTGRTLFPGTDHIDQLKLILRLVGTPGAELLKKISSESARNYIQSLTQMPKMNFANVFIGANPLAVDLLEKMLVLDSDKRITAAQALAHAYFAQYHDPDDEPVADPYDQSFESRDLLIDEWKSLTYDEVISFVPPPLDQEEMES
Chain of FGFR2 (human), P21802 [N549H] (P21802 whole entry N549H, looked up): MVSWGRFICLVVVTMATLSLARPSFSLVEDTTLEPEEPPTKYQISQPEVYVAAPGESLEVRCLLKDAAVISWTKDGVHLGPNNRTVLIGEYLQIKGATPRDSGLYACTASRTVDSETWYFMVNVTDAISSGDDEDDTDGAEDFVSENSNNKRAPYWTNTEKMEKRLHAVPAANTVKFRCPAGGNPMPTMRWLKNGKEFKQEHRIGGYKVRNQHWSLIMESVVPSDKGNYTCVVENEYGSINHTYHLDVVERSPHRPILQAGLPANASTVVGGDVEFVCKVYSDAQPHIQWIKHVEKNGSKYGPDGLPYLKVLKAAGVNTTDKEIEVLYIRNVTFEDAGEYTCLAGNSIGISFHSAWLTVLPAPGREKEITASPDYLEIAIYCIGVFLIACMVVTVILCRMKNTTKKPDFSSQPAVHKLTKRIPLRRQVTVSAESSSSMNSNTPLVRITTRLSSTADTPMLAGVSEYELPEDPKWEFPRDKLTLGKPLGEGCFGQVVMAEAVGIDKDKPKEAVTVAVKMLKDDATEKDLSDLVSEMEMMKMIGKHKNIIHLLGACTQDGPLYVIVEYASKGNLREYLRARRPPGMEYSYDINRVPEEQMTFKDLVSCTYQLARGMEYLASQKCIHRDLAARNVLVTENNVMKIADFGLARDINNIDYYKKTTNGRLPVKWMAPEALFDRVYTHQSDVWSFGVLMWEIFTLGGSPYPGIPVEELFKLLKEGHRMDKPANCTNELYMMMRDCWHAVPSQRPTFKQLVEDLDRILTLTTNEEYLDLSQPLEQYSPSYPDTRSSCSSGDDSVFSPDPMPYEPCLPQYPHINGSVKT
Chain of CAMK2B (human) (Q13554 whole entry, looked up): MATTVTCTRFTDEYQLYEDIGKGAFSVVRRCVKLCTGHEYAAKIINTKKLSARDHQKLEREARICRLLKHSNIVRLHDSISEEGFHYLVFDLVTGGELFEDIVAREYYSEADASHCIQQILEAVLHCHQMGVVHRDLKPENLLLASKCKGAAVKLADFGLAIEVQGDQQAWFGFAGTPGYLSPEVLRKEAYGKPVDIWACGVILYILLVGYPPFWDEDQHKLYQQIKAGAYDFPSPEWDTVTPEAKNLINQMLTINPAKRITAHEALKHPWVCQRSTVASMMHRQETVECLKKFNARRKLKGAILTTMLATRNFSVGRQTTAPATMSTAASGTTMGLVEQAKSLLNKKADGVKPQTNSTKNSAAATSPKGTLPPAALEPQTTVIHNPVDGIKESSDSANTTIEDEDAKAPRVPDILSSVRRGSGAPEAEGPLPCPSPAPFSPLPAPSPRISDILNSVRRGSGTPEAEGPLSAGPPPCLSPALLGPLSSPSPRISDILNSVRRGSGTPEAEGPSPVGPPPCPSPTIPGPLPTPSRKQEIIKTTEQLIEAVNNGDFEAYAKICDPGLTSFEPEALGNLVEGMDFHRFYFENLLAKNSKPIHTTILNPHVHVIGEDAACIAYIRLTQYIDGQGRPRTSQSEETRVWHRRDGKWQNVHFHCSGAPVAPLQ
Chain of PIM1 (human) (P11309 whole entry, looked up): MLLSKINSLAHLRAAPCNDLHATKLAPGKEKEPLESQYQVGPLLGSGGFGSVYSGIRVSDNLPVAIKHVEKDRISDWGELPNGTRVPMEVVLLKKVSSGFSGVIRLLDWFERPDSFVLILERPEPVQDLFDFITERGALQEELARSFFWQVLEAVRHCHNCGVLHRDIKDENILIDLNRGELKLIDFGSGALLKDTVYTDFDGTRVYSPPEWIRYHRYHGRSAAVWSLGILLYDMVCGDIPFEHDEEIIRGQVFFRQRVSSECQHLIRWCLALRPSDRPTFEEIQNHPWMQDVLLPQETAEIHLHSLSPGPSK
Chain of HCK (human) (P08631 whole entry, looked up): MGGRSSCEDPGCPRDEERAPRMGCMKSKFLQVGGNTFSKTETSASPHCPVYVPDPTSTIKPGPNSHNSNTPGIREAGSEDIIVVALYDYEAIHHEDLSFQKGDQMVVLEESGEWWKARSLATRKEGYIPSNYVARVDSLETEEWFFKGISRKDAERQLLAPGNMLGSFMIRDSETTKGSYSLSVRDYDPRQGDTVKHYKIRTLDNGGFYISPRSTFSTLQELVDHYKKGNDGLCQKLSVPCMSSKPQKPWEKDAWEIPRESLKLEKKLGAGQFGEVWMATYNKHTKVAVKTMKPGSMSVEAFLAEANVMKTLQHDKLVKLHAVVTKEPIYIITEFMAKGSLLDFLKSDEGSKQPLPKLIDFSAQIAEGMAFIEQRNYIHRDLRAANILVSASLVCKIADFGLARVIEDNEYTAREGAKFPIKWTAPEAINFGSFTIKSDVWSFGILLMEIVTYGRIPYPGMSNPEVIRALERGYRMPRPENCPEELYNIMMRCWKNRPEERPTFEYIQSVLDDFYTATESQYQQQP
Chain of IGF1R (human) (P08069 whole entry, looked up): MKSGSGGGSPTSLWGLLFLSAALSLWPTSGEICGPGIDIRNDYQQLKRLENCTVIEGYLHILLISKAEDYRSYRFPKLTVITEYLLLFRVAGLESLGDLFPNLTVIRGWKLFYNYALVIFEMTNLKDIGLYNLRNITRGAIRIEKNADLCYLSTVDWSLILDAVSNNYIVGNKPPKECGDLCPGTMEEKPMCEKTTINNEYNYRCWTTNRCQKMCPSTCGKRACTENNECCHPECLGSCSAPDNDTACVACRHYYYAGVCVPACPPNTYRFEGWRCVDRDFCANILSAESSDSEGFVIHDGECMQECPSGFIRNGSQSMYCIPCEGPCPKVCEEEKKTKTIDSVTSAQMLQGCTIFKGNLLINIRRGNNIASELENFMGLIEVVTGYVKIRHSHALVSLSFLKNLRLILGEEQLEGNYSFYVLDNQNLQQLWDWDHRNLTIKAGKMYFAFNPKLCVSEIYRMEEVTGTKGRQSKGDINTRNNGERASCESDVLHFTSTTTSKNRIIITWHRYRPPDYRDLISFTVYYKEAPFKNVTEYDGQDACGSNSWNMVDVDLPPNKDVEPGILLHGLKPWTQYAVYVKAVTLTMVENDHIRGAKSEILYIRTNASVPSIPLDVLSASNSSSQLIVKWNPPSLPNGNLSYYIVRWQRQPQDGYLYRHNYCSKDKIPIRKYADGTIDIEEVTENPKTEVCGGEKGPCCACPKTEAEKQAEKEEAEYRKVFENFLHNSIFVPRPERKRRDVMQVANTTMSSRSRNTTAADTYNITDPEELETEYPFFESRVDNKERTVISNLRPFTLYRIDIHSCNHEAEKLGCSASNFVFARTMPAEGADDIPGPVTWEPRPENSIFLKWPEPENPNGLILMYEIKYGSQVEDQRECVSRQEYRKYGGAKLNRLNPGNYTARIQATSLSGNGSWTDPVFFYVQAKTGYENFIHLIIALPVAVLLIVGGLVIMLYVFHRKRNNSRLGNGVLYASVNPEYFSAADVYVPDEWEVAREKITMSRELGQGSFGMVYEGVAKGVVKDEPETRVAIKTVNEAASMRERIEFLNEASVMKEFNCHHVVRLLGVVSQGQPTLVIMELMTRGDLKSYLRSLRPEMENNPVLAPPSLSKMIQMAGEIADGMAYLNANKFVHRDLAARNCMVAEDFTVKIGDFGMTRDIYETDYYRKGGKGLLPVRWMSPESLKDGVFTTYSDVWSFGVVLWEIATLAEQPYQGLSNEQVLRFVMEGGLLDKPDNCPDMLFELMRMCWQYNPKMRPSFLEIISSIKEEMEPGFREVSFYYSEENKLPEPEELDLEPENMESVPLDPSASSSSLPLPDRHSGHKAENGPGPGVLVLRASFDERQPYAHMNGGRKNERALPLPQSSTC
Chain of GSK3B (human) (P49841 whole entry, looked up): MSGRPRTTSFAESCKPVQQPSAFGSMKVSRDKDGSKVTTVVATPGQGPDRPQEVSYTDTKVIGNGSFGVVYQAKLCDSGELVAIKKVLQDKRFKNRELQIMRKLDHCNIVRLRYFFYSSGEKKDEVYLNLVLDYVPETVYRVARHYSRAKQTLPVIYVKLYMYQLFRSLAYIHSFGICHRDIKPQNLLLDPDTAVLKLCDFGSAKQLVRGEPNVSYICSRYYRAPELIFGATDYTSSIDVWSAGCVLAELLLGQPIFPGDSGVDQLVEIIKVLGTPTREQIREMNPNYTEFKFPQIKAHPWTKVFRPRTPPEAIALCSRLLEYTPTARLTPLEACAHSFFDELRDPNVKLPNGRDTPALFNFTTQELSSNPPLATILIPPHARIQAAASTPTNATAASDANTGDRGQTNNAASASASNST

SMILES: CN(c1ccc2ccc3ncc(-c4cnn(C)c4)cc3c(=O)c2c1)S(=O)(=O)NCc1ccccn1
- inhibition (AURKB (human); compound 0.1 µM): 37.1%
- inhibition (AURKB (human); compound 1.0 µM): 80.7%
- inhibition (INSR (human); compound 0.1 µM): 3.4%
- inhibition (INSR (human); compound 1.0 µM): -0.3%
- inhibition (CHEK1 (human); compound 0.1 µM): 3.6%
- inhibition (CHEK1 (human); compound 1.0 µM): 2.6%
- inhibition (TSSK2 (human); compound 0.1 µM): -3.3%
- inhibition (TSSK2 (human); compound 1.0 µM): -0.8%
- inhibition (DYRK1A (human); compound 0.1 µM): 7.9%
- inhibition (DYRK1A (human); compound 1.0 µM): 40.1%
- inhibition (CSNK1D (human); compound 0.1 µM): 3.5%
- inhibition (CSNK1D (human); compound 1.0 µM): 8.9%
- inhibition (PIM2 (human); compound 0.1 µM): 1.2%
- inhibition (PIM2 (human); compound 1.0 µM): 5.1%
- inhibition (GSK3B (human); compound 0.1 µM): -6.8%
- inhibition (GSK3B (human); compound 1.0 µM): 4.8%
- inhibition (PRKCE (human); compound 0.1 µM): 8.8%
- inhibition (PRKCE (human); compound 1.0 µM): 3.9%
- inhibition (CAMK2B (human); compound 0.1 µM): 5.9%
- inhibition (CAMK2B (human); compound 1.0 µM): 12.1%
- inhibition (PIM1 (human); compound 0.1 µM): -2.7%
- inhibition (PIM1 (human); compound 1.0 µM): 2.1%
- inhibition (PRKCH (human); compound 0.1 µM): 10%
- inhibition (PRKCH (human); compound 1.0 µM): 3.2%
- inhibition (ABL2 (human); compound 0.1 µM): -2.4%
- inhibition (ABL2 (human); compound 1.0 µM): 18%
- inhibition (IRAK4 (human); compound 0.1 µM): 7%
- inhibition (IRAK4 (human); compound 1.0 µM): 16.1%
- inhibition (PRKCB1 (human); compound 0.1 µM): -7.7%
- inhibition (PRKCB1 (human); compound 1.0 µM): 8.8%
- inhibition (MARK3 (human); compound 0.1 µM): -1.8%
- inhibition (MARK3 (human); compound 1.0 µM): 5.3%
- inhibition ([1]; compound 0.1 µM): 6.9%
- inhibition ([1]; compound 1.0 µM): 51.8%
- inhibition (ROCK2 (human); compound 0.1 µM): 21.3%
- inhibition (ROCK2 (human); compound 1.0 µM): 20.8%
- inhibition (RAF1 (human); compound 0.1 µM): -6.5%
- inhibition (RAF1 (human); compound 1.0 µM): -0.8%
- inhibition (LCK (human); compound 0.1 µM): -3.5%
- inhibition (LCK (human); compound 1.0 µM): 11.3%
- inhibition (PRKD1 (human); compound 0.1 µM): -0.4%
- inhibition (PRKD1 (human); compound 1.0 µM): 1.9%
- inhibition (MAPK13 (human); compound 0.1 µM): -0.3%
- inhibition (MAPK13 (human); compound 1.0 µM): 9.8%
- inhibition (CHEK2 (human); compound 0.1 µM): -1.5%
- inhibition (CHEK2 (human); compound 1.0 µM): 6.9%
- inhibition (FGFR4 (human); compound 0.1 µM): 8.9%
- inhibition (FGFR4 (human); compound 1.0 µM): 22.4%
- inhibition (MAPK11 (human); compound 0.1 µM): -0.1%
- inhibition (MAPK11 (human); compound 1.0 µM): -5.4%
- inhibition (IGF1R (human); compound 0.1 µM): -12.2%
- inhibition (IGF1R (human); compound 1.0 µM): -0.8%
- inhibition (FLT3 (human); compound 0.1 µM): 13.7%
- inhibition (FLT3 (human); compound 1.0 µM): 62.9%
- inhibition (PRKD3 (human); compound 0.1 µM): 8%
- inhibition (PRKD3 (human); compound 1.0 µM): 9.4%
- inhibition ([2]; compound 0.1 µM): 16%
- inhibition ([2]; compound 1.0 µM): 57.6%
- inhibition (HCK (human); compound 0.1 µM): 9.4%
- inhibition (HCK (human); compound 1.0 µM): 14.6%
- inhibition (KDR (human); compound 0.1 µM): 33.2%
- inhibition (KDR (human); compound 1.0 µM): 93.1%
- inhibition (TSSK1B (human); compound 0.1 µM): -4.8%
- inhibition (TSSK1B (human); compound 1.0 µM): 8.1%
- inhibition (MAPK14 (human); compound 0.1 µM): -4.5%
- inhibition (MAPK14 (human); compound 1.0 µM): 1.9%
- inhibition (AURKC (human); compound 0.1 µM): 31.7%
- inhibition (AURKC (human); compound 1.0 µM): 75.8%
